Reference: PubChem BioAssay (NCI)
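Compound exposure: 48 hours, 5 concentrations, 96-well plates. At the TGI there is no net growth.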

Assays:
Test in all cases: NCI-60 cell line screen, 48 h
KM12 colon = test system: KM12 colon
IGROV1 ovarian = test system: IGROV1 ovarian
SF-539 CNS = test system: SF-539 CNS
SK-OV-3 ovarian = test system: SK-OV-3 ovarian
OVCAR-4 ovarian = test system: OVCAR-4 ovarian
CAKI-1 renal = test system: CAKI-1 renal
MDA-N = test system: MDA-N
RPMI-8226 leukemia = test system: RPMI-8226 leukemia
ACHN renal = test system: ACHN renal
HCT-116 colon = test system: HCT-116 colon
A549 NSCLC = test system: A549 NSCLC
MCF7 breast = test system: MCF7 breast
OVCAR-5 ovarian = test system: OVCAR-5 ovarian
HS 578T breast = test system: HS 578T breast
MDA-MB-435 = test system: MDA-MB-435
A498 renal = test system: A498 renal
SNB-75 CNS = test system: SNB-75 CNS
U251 CNS = test system: U251 CNS
OVCAR-8 ovarian = test system: OVCAR-8 ovarian
SK-MEL-2 melanoma = test system: SK-MEL-2 melanoma
SF-268 CNS = test system: SF-268 CNS
SNB-19 CNS = test system: SNB-19 CNS
SN12C renal = test system: SN12C renal
TK-10 renal = test system: TK-10 renal
HT29 colon = test system: HT29 colon
OVCAR-3 ovarian = test system: OVCAR-3 ovarian
UACC-62 melanoma = test system: UACC-62 melanoma
MOLT-4 leukemia = test system: MOLT-4 leukemia
HL-60(TB) leukemia = test system: HL-60(TB) leukemia
K-562 leukemia = test system: K-562 leukemia
NCI-H23 lung = test system: NCI-H23 lung
HOP-62 NSCLC = test system: HOP-62 NSCLC
NCI-H226 lung = test system: NCI-H226 lung
SW-620 colon = test system: SW-620 colon
RXF 393 renal = test system: RXF 393 renal
BT-549 breast = test system: BT-549 breast
EKVX NSCLC = test system: EKVX NSCLC
SF-295 CNS = test system: SF-295 CNS
HCC-2998 colon = test system: HCC-2998 colon
786-0 renal = test system: 786-0 renal
NCI-H522 lung = test system: NCI-H522 lung
NCI-H460 lung = test system: NCI-H460 lung
SK-MEL-5 melanoma = test system: SK-MEL-5 melanoma
SR leukemia = test system: SR leukemia
DU-145 prostate = test system: DU-145 prostate
LOX IMVI melanoma = test system: LOX IMVI melanoma
CCRF-CEM leukemia = test system: CCRF-CEM leukemia
M14 melanoma = test system: M14 melanoma
COLO 205 colon = test system: COLO 205 colon
HOP-92 NSCLC = test system: HOP-92 NSCLC
MDA-MB-231 breast = test system: MDA-MB-231 breast
UO-31 renal = test system: UO-31 renal
PC-3 prostate = test system: PC-3 prostate
HCT-15 colon = test system: HCT-15 colon
UACC-257 melanoma = test system: UACC-257 melanoma
NCI/ADR-RES ovarian = test system: NCI/ADR-RES ovarian
SK-MEL-28 melanoma = test system: SK-MEL-28 melanoma
T-47D breast = test system: T-47D breast
MALME-3M melanoma = test system: MALME-3M melanoma

COCN1C(=O)[C@@H]2CCCN2C(=O)c2ccc(N)cc21 was tested, and the TGI (KM12 colon) was greater than 100 µM, the TGI (IGROV1 ovarian) was greater than 100 µM and the TGI (SF-539 CNS) was greater than 100 µM. The TGI (SK-OV-3 ovarian) was greater than 100 µM, the TGI (OVCAR-4 ovarian) was greater than 100 µM and the TGI (CAKI-1 renal) was greater than 100 µM. For the same molecule, the TGI (MDA-N) was greater than 100 µM, the TGI (RPMI-8226 leukemia) was greater than 100 µM and the TGI (ACHN renal) was greater than 100 µM. The TGI (HCT-116 colon) was greater than 100 µM, the TGI (A549 NSCLC) was greater than 100 µM and the TGI (MCF7 breast) was greater than 100 µM. For the same molecule, the TGI (OVCAR-5 ovarian) was greater than 100 µM, the TGI (HS 578T breast) was greater than 100 µM and the TGI (MDA-MB-435) was greater than 100 µM. It also gave a TGI (A498 renal) greater than 100 µM, a TGI (SNB-75 CNS) greater than 100 µM and a TGI (U251 CNS) greater than 100 µM. For the same molecule, the TGI (OVCAR-8 ovarian) was greater than 100 µM, the TGI (SK-MEL-2 melanoma) was greater than 100 µM and the TGI (SF-268 CNS) was greater than 100 µM. It also gave a TGI (SNB-19 CNS) greater than 100 µM, a TGI (SN12C renal) greater than 100 µM and a TGI (TK-10 renal) greater than 100 µM. The TGI (HT29 colon) was greater than 100 µM, the TGI (OVCAR-3 ovarian) was greater than 100 µM and the TGI (UACC-62 melanoma) was greater than 100 µM. The TGI (MOLT-4 leukemia) was greater than 100 µM, the TGI (HL-60(TB) leukemia) was greater than 100 µM and the TGI (K-562 leukemia) was greater than 100 µM. It also gave a TGI (NCI-H23 lung) greater than 100 µM, a TGI (HOP-62 NSCLC) greater than 100 µM and a TGI (NCI-H226 lung) greater than 100 µM. It also gave a TGI (SW-620 colon) greater than 100 µM, a TGI (RXF 393 renal) greater than 100 µM and a TGI (BT-549 breast) greater than 100 µM. It also gave a TGI (EKVX NSCLC) greater than 100 µM, a TGI (SF-295 CNS) greater than 100 µM and a TGI (HCC-2998 colon) greater than 100 µM. It also gave a TGI (786-0 renal) greater than 100 µM, a TGI (NCI-H522 lung) greater than 100 µM and a TGI (NCI-H460 lung) greater than 100 µM. It also gave a TGI (SK-MEL-5 melanoma) greater than 100 µM, a TGI (SR leukemia) greater than 100 µM and a TGI (DU-145 prostate) greater than 100 µM. It also gave a TGI (LOX IMVI melanoma) greater than 100 µM, a TGI (CCRF-CEM leukemia) greater than 100 µM and a TGI (M14 melanoma) greater than 100 µM. The TGI (COLO 205 colon) was greater than 100 µM, the TGI (HOP-92 NSCLC) was greater than 100 µM and the TGI (MDA-MB-231 breast) was greater than 100 µM. The TGI (UO-31 renal) was greater than 100 µM, the TGI (PC-3 prostate) was greater than 100 µM and the TGI (HCT-15 colon) was greater than 100 µM. For the same molecule, the TGI (UACC-257 melanoma) was greater than 100 µM, the TGI (NCI/ADR-RES ovarian) was greater than 100 µM and the TGI (SK-MEL-28 melanoma) was greater than 100 µM.
With CCOC(=O)N1c2ccccc2C(C)=CC(C)C1C (stereo not given) the TGI (KM12 colon) was 83.4 µM, the TGI (IGROV1 ovarian) was greater than 100 µM and the TGI (SF-539 CNS) was 42.7 µM. The TGI (SK-OV-3 ovarian) was greater than 100 µM, the TGI (OVCAR-4 ovarian) was greater than 100 µM and the TGI (CAKI-1 renal) was 74.3 µM. The TGI (MDA-N) was 27.3 µM, the TGI (RPMI-8226 leukemia) was greater than 100 µM and the TGI (ACHN renal) was greater than 100 µM. It also gave a TGI (HCT-116 colon) of 40.1 µM, a TGI (A549 NSCLC) greater than 100 µM and a TGI (MCF7 breast) greater than 100 µM. The TGI (OVCAR-5 ovarian) was greater than 100 µM, the TGI (HS 578T breast) was 82.2 µM and the TGI (MDA-MB-435) was 15.8 µM. It also gave a TGI (A498 renal) of 96.5 µM, a TGI (SNB-75 CNS) of 69 µM and a TGI (OVCAR-8 ovarian) of 44.1 µM. For the same molecule, the TGI (T-47D breast) was greater than 100 µM, the TGI (SK-MEL-2 melanoma) was greater than 100 µM and the TGI (SF-268 CNS) was greater than 100 µM. It also gave a TGI (SNB-19 CNS) greater than 100 µM, a TGI (SN12C renal) greater than 100 µM and a TGI (TK-10 renal) of 51 µM. It also gave a TGI (HT29 colon) of 40.3 µM, a TGI (OVCAR-3 ovarian) of 51.1 µM and a TGI (UACC-62 melanoma) greater than 100 µM. For the same molecule, the TGI (MOLT-4 leukemia) was greater than 100 µM, the TGI (HL-60(TB) leukemia) was 57.2 µM and the TGI (K-562 leukemia) was greater than 100 µM. The TGI (NCI-H23 lung) was 60.1 µM, the TGI (HOP-62 NSCLC) was greater than 100 µM and the TGI (NCI-H226 lung) was 80.1 µM. For the same molecule, the TGI (SW-620 colon) was greater than 100 µM, the TGI (RXF 393 renal) was 51 µM and the TGI (EKVX NSCLC) was 99 µM. The TGI (MALME-3M melanoma) was greater than 100 µM, the TGI (SF-295 CNS) was 68.3 µM and the TGI (HCC-2998 colon) was greater than 100 µM. For the same molecule, the TGI (786-0 renal) was greater than 100 µM, the TGI (NCI-H522 lung) was 89.6 µM and the TGI (NCI-H460 lung) was greater than 100 µM. For the same molecule, the TGI (SK-MEL-5 melanoma) was 39.6 µM, the TGI (SR leukemia) was 55.1 µM and the TGI (DU-145 prostate) was greater than 100 µM. For the same molecule, the TGI (LOX IMVI melanoma) was 63.7 µM, the TGI (CCRF-CEM leukemia) was greater than 100 µM and the TGI (M14 melanoma) was 80 µM. For the same molecule, the TGI (COLO 205 colon) was greater than 100 µM, the TGI (MDA-MB-231 breast) was 78.4 µM and the TGI (UO-31 renal) was greater than 100 µM. The TGI (PC-3 prostate) was greater than 100 µM, the TGI (HCT-15 colon) was greater than 100 µM and the TGI (UACC-257 melanoma) was 88.5 µM. The TGI (NCI/ADR-RES ovarian) was greater than 100 µM and the TGI (SK-MEL-28 melanoma) was greater than 100 µM.
Cc1nc2c(C)ccc([N+](=O)[O-])c2c(NCCCN(C)C)c1C showed a TGI (KM12 colon) greater than 100 µM, a TGI (IGROV1 ovarian) greater than 100 µM and a TGI (SF-539 CNS) greater than 100 µM. For the same molecule, the TGI (SK-OV-3 ovarian) was greater than 100 µM, the TGI (OVCAR-4 ovarian) was greater than 100 µM and the TGI (CAKI-1 renal) was greater than 100 µM. It also gave a TGI (MDA-N) greater than 100 µM, a TGI (RPMI-8226 leukemia) greater than 100 µM and a TGI (ACHN renal) greater than 100 µM. It also gave a TGI (HCT-116 colon) greater than 100 µM, a TGI (A549 NSCLC) greater than 100 µM and a TGI (MCF7 breast) greater than 100 µM. For the same molecule, the TGI (OVCAR-5 ovarian) was greater than 100 µM, the TGI (HS 578T breast) was greater than 100 µM and the TGI (MDA-MB-435) was greater than 100 µM. It also gave a TGI (A498 renal) greater than 49.6 µM, a TGI (SNB-75 CNS) greater than 100 µM and a TGI (U251 CNS) greater than 100 µM. For the same molecule, the TGI (OVCAR-8 ovarian) was greater than 71.6 µM, the TGI (T-47D breast) was greater than 100 µM and the TGI (SK-MEL-2 melanoma) was greater than 70.6 µM. For the same molecule, the TGI (SF-268 CNS) was greater than 100 µM, the TGI (SNB-19 CNS) was greater than 100 µM and the TGI (SN12C renal) was greater than 100 µM. For the same molecule, the TGI (TK-10 renal) was greater than 55.7 µM, the TGI (HT29 colon) was greater than 70.8 µM and the TGI (OVCAR-3 ovarian) was greater than 100 µM. For the same molecule, the TGI (UACC-62 melanoma) was greater than 100 µM, the TGI (MOLT-4 leukemia) was greater than 100 µM and the TGI (HL-60(TB) leukemia) was greater than 68.3 µM. The TGI (K-562 leukemia) was greater than 100 µM, the TGI (NCI-H23 lung) was greater than 100 µM and the TGI (HOP-62 NSCLC) was greater than 66.6 µM. It also gave a TGI (NCI-H226 lung) greater than 100 µM, a TGI (SW-620 colon) greater than 53 µM and a TGI (RXF 393 renal) greater than 100 µM. For the same molecule, the TGI (EKVX NSCLC) was greater than 100 µM, the TGI (MALME-3M melanoma) was greater than 55.3 µM and the TGI (SF-295 CNS) was greater than 100 µM. It also gave a TGI (HCC-2998 colon) greater than 55.4 µM, a TGI (786-0 renal) greater than 100 µM and a TGI (NCI-H522 lung) greater than 100 µM. The TGI (NCI-H460 lung) was greater than 100 µM, the TGI (SK-MEL-5 melanoma) was 27.2 µM and the TGI (SR leukemia) was greater than 100 µM. The TGI (DU-145 prostate) was greater than 100 µM, the TGI (LOX IMVI melanoma) was greater than 100 µM and the TGI (CCRF-CEM leukemia) was greater than 100 µM. For the same molecule, the TGI (M14 melanoma) was 37.6 µM, the TGI (COLO 205 colon) was 47.6 µM and the TGI (HOP-92 NSCLC) was greater than 100 µM. It also gave a TGI (UO-31 renal) greater than 100 µM, a TGI (PC-3 prostate) greater than 47.9 µM and a TGI (HCT-15 colon) greater than 54.2 µM. It also gave a TGI (UACC-257 melanoma) of 54.5 µM, a TGI (NCI/ADR-RES ovarian) greater than 100 µM and a TGI (SK-MEL-28 melanoma) greater than 54.8 µM.
